{"source": "patent US10953063B2", "about": "“Method of treating select cancers using timed administration of plant extract from species Physalis pubescens and Hedyotis diffusa willd” (priority 2018, dated 2021)", "origin": "cited, not measured here", "test_system": "human leukemia cells", "details": "research findings"}
{"compound": "Cc1cc2c(cc1O)C(=O)c1ccccc1C2=O", "note": "[2-Hydroxy-3-Methylanthraguinone]", "values": [{"measurement": "apoptosis in human leukemia cells", "result": "induces apoptosis"}]}
